Source: BindingDB's records for doi:10.3109/14756366.2011.643304 (Umeå University, 2013)

Target: T1, Fatty-acid amide hydrolase 1 [30-579] (Rattus norvegicus, UniProt P97612)
T1 construct: 30-579
T1 sequence (P97612 whole entry): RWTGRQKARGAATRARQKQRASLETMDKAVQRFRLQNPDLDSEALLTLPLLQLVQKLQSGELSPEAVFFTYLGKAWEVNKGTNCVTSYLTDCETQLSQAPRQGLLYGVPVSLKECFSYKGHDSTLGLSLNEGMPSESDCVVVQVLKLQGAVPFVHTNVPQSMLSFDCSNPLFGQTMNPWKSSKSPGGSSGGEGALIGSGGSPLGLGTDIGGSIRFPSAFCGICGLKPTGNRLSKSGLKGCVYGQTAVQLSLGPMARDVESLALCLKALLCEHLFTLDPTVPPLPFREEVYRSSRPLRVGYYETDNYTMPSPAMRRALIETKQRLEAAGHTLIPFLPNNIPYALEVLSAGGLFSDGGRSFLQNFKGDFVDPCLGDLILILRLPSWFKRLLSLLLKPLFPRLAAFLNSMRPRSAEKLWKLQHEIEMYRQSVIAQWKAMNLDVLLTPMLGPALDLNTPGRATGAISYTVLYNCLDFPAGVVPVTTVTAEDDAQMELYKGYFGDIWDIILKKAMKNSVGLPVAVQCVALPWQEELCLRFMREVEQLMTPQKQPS
Experiment: FAAH Assay
Details: pH 7; 4 °C
Method: Frozen (−80 °C) brains (minus cerebella) from adult Wistar or Sprague-Dawley rats were thawed and homogenized in 20 mM HEPES, 1 mM MgCl2, pH 7.0. and thereafter centrifuged at ~35000 × g for 20 min at 4°C. […] After a further centrifugation, the pellets were resuspended in 50 mMTris-HCl buffer, pH 7.4, containing 1 mM EDTA and 3 mM MgCl2 and frozen at −80°C in aliquots until used for assay. […] Reactions were stopped by placing the tubes on ice. Final assay concentrations of the solvents used for the compounds (ethanol or DMSO) were in the range 1-5%. Activated charcoal (80 μL + 320 μL 0.5 M HCl) was added and the samples were mixed and left at room temperature for about 30 min. Following centrifugation at 2500 rpm for 10 min, aliquots (200 μL) of the supernatants were analyzed for tritium content by liquid scintillation spectroscopy with quench correction. Blank values were obtained by the use of buffer rather than homogenate.

Compound	IC50 [µM]
Cc1cccnc1NC(=O)C(C)c1ccc(CC(C)C)cc1 (configuration not stated) [2-(4-isobutylphenyl)-N-(3-methylpyridin-2-yl)propanamide]	0.65
CC(C)Cc1ccc(C(C)C(=O)NCC(=O)NCc2ccccn2)cc1 (configuration not stated) [2-(4-Isobutylphenyl)-N-(2-oxo-2-(pyridin-2-ylmethylamino)ethyl)propanamide (12)]	90
Cc1cccc(NC(=O)CNC(=O)C(C)c2ccc(CC(C)C)cc2)n1 (configuration not stated) [2-(4-Isobutylphenyl)-N-(2-(6-methylpyridin-2-ylamino)-2-oxoethyl)propanamide (10)]	150
Cc1cccnc1NC(=O)CCNC(=O)C(C)c1ccc(CC(C)C)cc1 (configuration not stated) [2-(4-Isobutylphenyl)-N-(3-(3-methylpyridin-2-ylamino)-3-oxopropyl)propanamide (11)]	9.3
CC(C)Cc1ccc(C(C)C(=O)NCC(=O)NCc2cccnc2)cc1 (configuration not stated) [2-(4-Isobutylphenyl)-N-(2-oxo-2-(pyridin-3-ylmethylamino)ethyl)propanamide (13)]	37
Cc1cccnc1OC(=O)C(C)c1ccc(CC(C)C)cc1 (configuration not stated) [3-Methylpyridin-2-yl 2-(4-isobutylphenyl)propanoate (3)]	115
CC(=O)Nc1ccc(OC(=O)CNC(=O)C(C)c2ccc(CC(C)C)cc2)cc1 (configuration not stated) [4-Acetamidophenyl 2-(2-(4-isobutylphenyl)propanamido)acetate (8)]	1.5
